Reference: the Deep4Chem optical property database
Values belong to the compound of their own block, whether it stands above or below them.

Assay: solvent given as SMILES

Structure (SMILES): CCn1c2ccccc2c2cc(C#Cc3cc(C#Cc4ccc5c(c4)c4ccccc4n5CC)nc(N4CCCCC4)n3)ccc21
emission maximum (in C1CCOC1): 445 nm | emission maximum (in CCOC(C)=O): 446 nm | emission maximum (in CN(C)C=O): 469 nm | emission maximum (in Cc1ccccc1): 438 nm | emission maximum (in ClCCl): 450 nm

Structure (SMILES): c1ccc(-c2nc(-c3ccccc3)nc(-c3ccc(-n4c5ccccc5c5c6c(ccc54)C4(c5ccccc5-c5ccccc54)c4ccccc4-6)cc3)n2)cc1
emission maximum (in C1CCOC1): 488.19 nm | emission maximum (in C1COCCO1): 453.7 nm | emission maximum (in CN(C)C=O): 525.23 nm | emission maximum (in Cc1ccccc1): 444 nm | emission maximum (in ClC(Cl)Cl): 496.99 nm

emission maximum (in C1COCCO1): 435 nm | emission maximum (in CC#N): 443 nm | emission maximum (in CO): 446 nm | emission maximum (in O): 458 nm
Structure (SMILES): O=c1[nH]c(=O)n([C@@H]2O[C@H](CO)[C@@H](O)[C@H]2O)cc1-c1cc2ccccc2s1

emission maximum (in CCO): 533 nm | emission maximum (in ClCCl): 507 nm
Structure (SMILES): CCN(CC)c1ccc2cc(C#N)/c(=N\C(=O)c3ccc(F)cc3)oc2c1

emission maximum (in ClCCl): 491 nm
Structure (SMILES): C1=C(c2ccccc2)S[C@]23C1=C(c1ccccc1)[C@H](c1ccccc12)c1ccccc13

Structure (SMILES): Cc1cc(-c2nc(-c3ccccc3)nc(-c3ccccc3)n2)cc(C)c1N1c2ccccc2CCc2ccccc21
emission maximum (in Cc1ccccc1): 475.79 nm

emission maximum (in CCO): 344 nm
Structure (SMILES): c1ccc(-n2c3ccccc3c3ccccc32)cc1
